Test results reported in patent US6353111B1, “Trans olefinic glucokinase activators” (Hoffmann-La Roche Inc., priority 1999, dated 2002).

What was measured:
C57BL/6J mice = test: Glucokinase activator in vivo screen protocol (blood glucose after oral dosing); details: oral gavage 50 mg/kg after two hour fast, blood glucose at 1, 2, 4 and 6 hours post dose, active = p≦0.05 decrease for two consecutive time points
Protocol: Glucokinase Activator in vivo Screen Protocol
C57BL/6J. mice are orally dosed via gavage with Glucokinase (GK) activator at 50 mg/kg body weight following a two hour fasting period. Blood glucose determinations are made five times during the six hour post-dose study period.
Mice (n=6) are weighed and fasted for a two hour period prior to oral treatment. GK activators are formulated at 6.76 mg/ml in Gelucire vehicle (Ethanol:Gelucire44/14:PEG400q.s. 4:66:30 v/w/v. Mice are dosed orally with 7.5 μl formulation per gram of body weight to equal a 50 mg/kg dose. Immediately prior to dosing, a pre dose (time zero) blood glucose reading is acquired by snipping off a small portion of the animals tail (˜1 mm) and collecting 15 μl blood into a heparinized capillary tube for analysis. Following GK activator administration, additional blood glucose readings are taken at 1, 2, 4 and 6 hours post dose from the same tail wound. Results are interpreted by comparing the mean blood glucose values of six vehicle treated mice with six GK activator treated mice over the six hour study duration.

Row | SMILES | melting point [°C] | glucokinase activator in vivo activity (decrease in blood glucose compared to vehicle) (C57BL/6J mice)
1 | CS(=O)(=O)c1ccc(/C(=C\C2CCCCC2)C(=O)Nc2nccs2)cc1 [Example 4, (E)-3-Cyclohexyl-2-(4-methanesulfonyl-phenyl)-N-thiazol-2-yl-acrylamide] |  | excellent glucokinase activator in vivo activity
2 | CS(=O)(=O)c1ccc(/C(=C\C2CCCCCC2)C(=O)Nc2nccs2)cc1 [Example 5, (E)-3-Cycloheptyl-2-(4-methanesulfonyl-phenyl)-N-thiazol-2-yl-acrylamide] | 163 to 165 | excellent glucokinase activator in vivo activity
3 | CS(=O)(=O)c1ccc(/C(=C\C2CCCC2)C(=O)Nc2nccs2)cc1Cl [Example 9, (E)-2-(3-Chloro-4-methanesulfonyl-phenyl)-3-cyclopentyl-N-thiazol-2-yl-acrylamide] |  | excellent glucokinase activator in vivo activity
4 | CS(=O)(=O)c1ccc(/C(=C\C2CCCCC2)C(=O)Nc2nccs2)cc1C(F)(F)F [Example 12, (E)-3-Cyclohexyl-2-(4-methanesulfonyl-3-trifluoromethyl-phenyl)-N-thiazol-2-yl-acrylamide] |  | excellent glucokinase activator in vivo activity
5 | CS(=O)(=O)c1ccc(/C(=C\C2CCCCC2)C(=O)Nc2nccs2)cc1[N+](=O)[O-] [Example 14, (E)-3-Cyclohexyl-2-(4-methanesulfonyl-3-nitro-phenyl)-N-thiazol-2-yl-acrylamide] |  | excellent glucokinase activator in vivo activity
6 | CS(=O)(=O)c1ccc(/C(=C\C2CCCCCC2)C(=O)Nc2ncc(Br)s2)cc1 [Example 16, (E)-N-(5-Bromo-thiazol-2-yl)-3-cycloheptyl-2-(4-methanesulfonyl-phenyl)-acrylamide] | 159 to 163 | excellent glucokinase activator in vivo activity
7 | CS(=O)(=O)c1ccc(/C(=C\C2CCCC2)C(=O)Nc2ccccn2)cc1Cl [Example 19, (E)-2-(3-Chloro-4-methanesulfonyl-phenyl)-3-cyclopentyl-N-pyridin-2-yl-acrylamide] |  | excellent glucokinase activator in vivo activity
8 | CS(=O)(=O)c1ccc(/C(=C\C2CCCCC2)C(=O)Nc2ccc(Br)cn2)cc1C(F)(F)F [Example 20, (E)-N-(5-Bromo-pyridin-2-yl)-3-cyclohexyl-2-(4-methanesulfonyl-3-trifluoromethyl-phenyl)-acrylamide] |  | excellent glucokinase activator in vivo activity
9 | CS(=O)(=O)c1ccc(/C(=C\CC2CCCC2)C(=O)Nc2nccs2)cc1 [Example 21, (E)-4-Cyclopentyl-2-(4-methanesulfonyl-phenyl)-but-2-enoic acid thiazol-2-ylamide] | 173 to 176 | excellent glucokinase activator in vivo activity
10 | CS(=O)(=O)c1ccc(/C(=C\CC2CCCC2)C(=O)Nc2nccs2)cc1C(F)(F)F [Example 25, (E)-4-Cyclopentyl-2-(4-methanesulfonyl-3-trifluoromethyl-phenyl)-but-2-enoic acid thiazol-2-ylamide] |  | excellent glucokinase activator in vivo activity

The next lines start with results.

Row | melting point [°C] | SMILES | glucokinase activator in vivo activity (decrease in blood glucose compared to vehicle) (C57BL/6J mice)
11 | 155 to 158 | CC/C=C(/C(=O)Nc1nccs1)c1ccc(S(C)(=O)=O)cc1 [Example 1, (E)-2-(4-Methanesulfonyl-phenyl)-pent-2-enoic acid thiazol-2-ylamide] | 
12 | 172 to 173 | CS(=O)(=O)c1ccc(/C(=C\C2CCCC2)C(=O)Nc2nccs2)cc1 [Example 3, (E)-3-Cyclopentyl-2-(4-methanesulfonyl-phenyl)-N-thiazol-2-yl-acrylamide] | excellent glucokinase activator in vivo activity
13 | 202 to 205 | CS(=O)(=O)c1ccc(/C(=C\C2CCCC2)C(=O)Nc2ncc(Br)s2)cc1 [Example 7, (E)-N-(5-Bromo-thiazol-2-yl)-3-cyclopentyl-2-(4-methanesulfonyl-phenyl)-acrylamide] | 
14 | 57 to 59 | O=C(Nc1nccs1)/C(=C/C1CCCC1)c1ccc(Cl)c(Cl)c1 [Example 8, (E)-3-Cyclopentyl-2-(3,4-dichloro-phenyl)-N-thiazol-2-yl-acrylamide] | 
15 | 85 to 90 | COC(=O)c1csc(NC(=O)/C(=C/CC2CCCC2)c2ccc(S(C)(=O)=O)cc2)n1 [Example 22, (E)-2-[4-Cyclopentyl-2-(4-methanesulfonyl-phenyl)-but-2-enoylamino]-thiazole-4-carboxylic acid methyl ester] | excellent glucokinase activator in vivo activity
16 | 177 to 178 | CNC(=O)NC(=O)/C(=C/C(C)C)c1ccc(Cl)c(Cl)c1 [Example 26, (E)-1-[2-(3,4-Dichloro-phenyl)-4-methyl-pent-2-enoyl]-3-methyl-urea] | 
17 | 199 to 202 | CNC(=O)NC(=O)/C(=C/C1CCCCC1)c1ccc(S(C)(=O)=O)c(C(F)(F)F)c1 [Example 27, (E)-1-[3-Cyclohexyl-2-(4-methanesulfonyl-3-trifluoromethyl-phenyl)-acryloyl]-3-methyl-urea] | 
